Measured values as given in patent US11551827B2, “Perfluorinated 1-alkoxypropenes in dielectric fluids and electrical devices” (priority 2017, dated 2023).

Test: Gaseous dielectric breakdown voltage measurement (Hipotronics OC60D-A dielectric strength tester)
Type: physicochemical
Conditions: for Dielectric breakdown voltage: gas, 0.1 inch (2.5 mm) gap, copper electrodes; for Performance as electrical insulator and interrupter (in words): judged from the dielectric breakdown voltage values in Tables 2 and 3
Experimental: The gaseous dielectric breakdown voltages of PE-1, PE-2, CE-1, CE-2, and CE-3 were measured experimentally using a Hipotronics OC60D-A dielectric strength tester (available from Hipotronics, Brewster, N.Y., USA), which was modified to allow measurements on low pressure gases. The electrode configuration consisted of two copper electrodes separated by a 0.1 inch (2.5 mm) gap housed in a gas tight PFTE (polytetrafluoroethylene) test chamber. The test chamber was first evacuated and then PE-1, PE-2, CE-1, CE-2, or CE-3 was charged to full vapor pressure and evacuated to the measured pressures indicated in Tables 2 and 3. The dielectric breakdown voltage (measured in kV) was measured after each evacuation to determine the dielectric strength and the results are summarized in Tables 2 and 3.

FC(F)=C(F)C(F)(F)F [CE-1, Hexafluoropropene] showed a Dielectric breakdown voltage (pressure 20 kPa) of 8.8 kV, a Dielectric breakdown voltage (pressure 40 kPa) of 9.8 kV and a Dielectric breakdown voltage (pressure 60 kPa) of 11.5 kV. The Dielectric breakdown voltage (pressure 80 kPa) was 13.9 kV, the Dielectric breakdown voltage (pressure 100 kPa) was 16.3 kV and the Dielectric breakdown voltage (pressure 120 kPa) was 18.4 kV. For the same compound, the Dielectric breakdown voltage (pressure 140 kPa) was 20.1 kV.

Work on FS(F)(F)(F)(F)F [CE-2, Sulfur hexafluoride] yielded a Dielectric breakdown voltage (pressure 13.9 kPa) of 4.6 kV, a Dielectric breakdown voltage (pressure 27.6 kPa) of 5.4 kV and a Dielectric breakdown voltage (pressure 41.4 kPa) of 7.8 kV. For the same compound, the Dielectric breakdown voltage (pressure 55.2 kPa) was 9.5 kV, the Dielectric breakdown voltage (pressure 69.0 kPa) was 10.9 kV and the Dielectric breakdown voltage (pressure 82.8 kPa) was 12.5 kV. It also gave a Dielectric breakdown voltage (pressure 110 kPa) of 15.3 kV, a Dielectric breakdown voltage (pressure 124 kPa) of 16.7 kV and a Dielectric breakdown voltage (pressure 139 kPa) of 18.0 kV.

FC1(F)C(F)(F)C1(F)F [CE-3, Perfluorocyclopropane] showed a Dielectric breakdown voltage (pressure 13.9 kPa) of 4.6 kV, a Dielectric breakdown voltage (pressure 27.6 kPa) of 6.4 kV and a Dielectric breakdown voltage (pressure 41.4 kPa) of 8.0 kV. It also gave a Dielectric breakdown voltage (pressure 55.2 kPa) of 9.5 kV, a Dielectric breakdown voltage (pressure 69.0 kPa) of 10.6 kV and a Dielectric breakdown voltage (pressure 82.8 kPa) of 12.0 kV. The Dielectric breakdown voltage (pressure 110 kPa) was 14.7 kV, the Dielectric breakdown voltage (pressure 124 kPa) was 16.0 kV and the Dielectric breakdown voltage (pressure 139 kPa) was 17.1 kV.

Compound FC(OC(F)(F)C(F)(F)F)=C(F)C(F)(F)F [PE-1, 1,2,3,3,3-Pentafluoro-1-(Perfluoroethoxy)Prop-1-Ene] has a Dielectric breakdown voltage (pressure 20 kPa) of 8.7 kV, a Dielectric breakdown voltage (pressure 40 kPa) of 13.5 kV and a Dielectric breakdown voltage (pressure 60 kPa) of 18.7 kV. For the same compound, the “Performance as electrical insulator and interrupter (in words)” value was “excellent electrical insulators and interrupters”.

In the case of FC(OC(F)(F)F)=C(F)C(F)(F)F [PE-2, 1,2,3,3,3-Pentafluoro-1-(Perfluoromethoxy)Prop-1-Ene], the Dielectric breakdown voltage (pressure 20 kPa) is reported as 8.8 kV, the Dielectric breakdown voltage (pressure 40 kPa) is reported as 10.9 kV and the Dielectric breakdown voltage (pressure 60 kPa) is reported as 15.6 kV. It also gave a Dielectric breakdown voltage (pressure 80 kPa) of 19.5 kV, a Dielectric breakdown voltage (pressure 100 kPa) of 22.7 kV and a Dielectric breakdown voltage (pressure 120 kPa) of 25.7 kV. For the same compound, the Dielectric breakdown voltage (pressure 140 kPa) was 28.9 kV and the “Performance as electrical insulator and interrupter (in words)” value was “excellent electrical insulators and interrupters”.
